Measured values taken from patent publication US12371464B2, “Polypeptides and uses thereof” (MEDIMMUNE LIMITED, priority 2020, dated 2025).
Numbered stars: 1 amine (or outer) side, 2 acyl side, 3 side chain; on linkers, the order of the positions; unused ones are H or OH. Bridge positions count the residues as written; N and C are the ends. Square brackets hold non-standard residues; d marks the D form. Side chains are listed from the residue outwards. Peptide text beside a SMILES is read from it. * marks the point of attachment. C18 diacid = O=C(O)CCCCCCCCCCCCCCCCC(=O)*; γGlu = O=C(O)[C@H](CCC(=O)[*:2])N[*:1]; αMeF = C[C@](N)(Cc1ccccc1)C(=O)O; Dab = NCC[C@H](N)C(=O)O; Aib = CC(C)(N)C(=O)O

Test: Thioflavin T fibrillation assay
Format: physicochemical
Settings: for Time taken to detect increase in fluorescence intensity: 1 mg/mL in 25 mM sodium acetate buffer pH 4.0, 37° C., 6 days, orbital shaking, >144 h = no increase
How it was run: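 Peptides at 1 mg/mL in 25 mM sodium acetate pH 4.0 were mixed with ThT (0.25 mM stock) and held 6 days at 37 °C with intermittent orbital shaking at 500–750 rpm. Fluorescence (ex 444/em 480 nm) was read every 30 min, with buffer baseline correction and 5 replicates. Value: mean time to a detectable fluorescence increase.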

| Compound | Time taken to detect increase in fluorescence intensity | fibril-forming tendency on conjugating pramlintide to a lipid (as seen in Table 7) |
| --- | --- | --- |
| CC[C@H](C)[C@H](NC(=O)[C@H](C)NC(=O)[C@@H]1CCCN1C(=O)[C@H](Cc1ccccc1)NC(=O)[C@H](CC(N)=O)NC(=O)[C@H](CCN)NC(=O)[C@H](CO)NC(=O)[C@H](CO)NC(=O)[C@H](Cc1c[nH]cn1)NC(=O)[C@@H](NC(=O)[C@H](CC(C)C)NC(=O)[C@H](Cc1ccccc1)NC(=O)[C@H](CC(N)=O)NC(=O)[C@H](C)NC(=O)[C@H](CC(C)C)NC(=O)[C@H](CCCNC(=N)N)NC(=O)[C@H](CCC(N)=O)NC(=O)[C@@H](NC(=O)[C@H](C)NC(=O)[C@@H]1CSSC[C@H](NC(=O)[C@@H](N)CCCCNC(=O)CC[C@H](NC(=O)CC[C@H](NC(=O)CCCCCCCCCCCCCCCCC(=O)O)C(=O)O)C(=O)O)C(=O)N[C@@H](CC(N)=O)C(=O)N[C@@H]([C@@H](C)O)C(=O)N[C@@H](C)C(=O)N[C@@H]([C@@H](C)O)C(=O)N1)[C@@H](C)O)C(C)C)C(=O)N[C@@H](CC(C)C)C(=O)N[C@@H](CO)C(=O)N1CCC[C@H]1C(=O)N[C@H](C(=O)N[C@@H](CC(N)=O)C(=O)N[C@H](C(=O)NCC(=O)N[C@@H](CO)C(=O)N[C@@H](CC(N)=O)C(=O)N[C@H](C(=O)N[C@@H](Cc1ccc(O)cc1)C(N)=O)[C@@H](C)O)C(C)C)[C@@H](C)O [Peptide 8, K(γE-γE-C18diacid)[CNTATC]ATQRLANFLVHSS(Dab)NFPAILSPTNVGSNTY-amide] (H-K([γGlu-γGlu-C18 diacid])CNTATCATQRLANFLVHSS[Dab]NFPAILSPTNVGSNTY-NH2; disulfide 2-7; N-terminus assumed) | 7 h |  |
| CC[C@H](C)[C@H](NC(=O)[C@@H]1CCCN1C(=O)CNC(=O)[C@H](Cc1ccccc1)NC(=O)[C@H](CC(N)=O)NC(=O)[C@H](CC(N)=O)NC(=O)[C@H](CO)NC(=O)[C@H](CO)NC(=O)[C@H](Cc1c[nH]cn1)NC(=O)[C@@H](NC(=O)[C@H](CC(C)C)NC(=O)[C@H](Cc1ccccc1)NC(=O)[C@H](CC(N)=O)NC(=O)[C@H](C)NC(=O)[C@H](CC(C)C)NC(=O)[C@H](CCCNC(=N)N)NC(=O)[C@H](CCC(N)=O)NC(=O)[C@@H](NC(=O)[C@H](C)NC(=O)[C@@H]1CSSC[C@H](NC(=O)[C@H](CCCCN)NC(=O)CC[C@H](NC(=O)CCCCCCCCCCCCCCCCC(=O)O)C(=O)O)C(=O)N[C@@H](CC(N)=O)C(=O)N[C@@H]([C@@H](C)O)C(=O)N[C@@H](C)C(=O)N[C@@H]([C@@H](C)O)C(=O)N1)[C@@H](C)O)C(C)C)C(=O)N[C@@H](CC(C)C)C(=O)N1CCC[C@H]1C(=O)N1CCC[C@H]1C(=O)N[C@H](C(=O)N[C@@H](CC(N)=O)C(=O)N[C@H](C(=O)NCC(=O)N[C@@H](CO)C(=O)N[C@@H](CC(N)=O)C(=O)N[C@H](C(=O)N[C@@H](Cc1ccc(O)cc1)C(N)=O)[C@@H](C)O)C(C)C)[C@@H](C)O [Peptide 3] ({C18 diacid-γGlu}-KCNTATCATQRLANFLVHSSNNFGPILPPTNVGSNTY-NH2; disulfide 2-7) | <5 h | increases the fibril-forming tendency |
| CC[C@H](C)[C@H](NC(=O)[C@@H]1CCCN1C(=O)CNC(=O)[C@](C)(Cc1ccccc1)NC(=O)[C@H](CC(N)=O)NC(=O)[C@H](CC(N)=O)NC(=O)[C@H](CO)NC(=O)[C@H](CO)NC(=O)[C@H](Cc1c[nH]cn1)NC(=O)[C@@H](NC(=O)[C@H](CC(C)C)NC(=O)[C@H](Cc1ccccc1)NC(=O)[C@H](CC(N)=O)NC(=O)[C@H](C)NC(=O)[C@H](CC(C)C)NC(=O)[C@H](CCCNC(=N)N)NC(=O)[C@H](CCC(N)=O)NC(=O)[C@@H](NC(=O)[C@H](C)NC(=O)[C@@H]1CSSC[C@H](NC(=O)[C@@H](N)CCCCNC(=O)CC[C@H](NC(=O)CC[C@H](NC(=O)CCCCCCCCCCCCCCCCC(=O)O)C(=O)O)C(=O)O)C(=O)N[C@@H](CC(N)=O)C(=O)N[C@@H]([C@@H](C)O)C(=O)N[C@@H](C)C(=O)N[C@@H]([C@@H](C)O)C(=O)N1)[C@@H](C)O)C(C)C)C(=O)N[C@@H](CC(C)C)C(=O)N1CCC[C@H]1C(=O)N1CCC[C@H]1C(=O)N[C@H](C(=O)N[C@@H](CC(N)=O)C(=O)N[C@H](C(=O)NCC(=O)N[C@@H](CO)C(=O)N[C@@H](CC(N)=O)C(=O)N[C@H](C(=O)N[C@@H](Cc1ccc(O)cc1)C(N)=O)[C@@H](C)O)C(C)C)[C@@H](C)O [Peptide 13, K(γE-γE-C18diacid)[CNTATC]ATQRLANFLVHSSNN(αMePhe)GPILPPTNVGSNTY-amide] (H-K([γGlu-γGlu-C18 diacid])CNTATCATQRLANFLVHSSNN[αMeF]GPILPPTNVGSNTY-NH2; disulfide 2-7; N-terminus assumed) | 25 h |  |

Continued, values first:

| Time taken to detect increase in fluorescence intensity | fibril-forming tendency on conjugating pramlintide to a lipid (as seen in Table 7) | Compound |
| --- | --- | --- |
| >144 h |  | CC[C@H](C)[C@H](NC(=O)[C@@H]1CCCN1C(=O)CNC(=O)[C@H](Cc1ccccc1)NC(=O)[C@H](CC(N)=O)NC(=O)C(C)(C)NC(=O)[C@H](CO)NC(=O)[C@H](CO)NC(=O)[C@H](Cc1c[nH]cn1)NC(=O)[C@H](CCCNC(=N)N)NC(=O)[C@H](CC(C)C)NC(=O)[C@H](Cc1ccccc1)NC(=O)[C@H](CC(N)=O)NC(=O)[C@H](C)NC(=O)[C@H](CC(C)C)NC(=O)[C@H](CCCNC(=N)N)NC(=O)[C@H](CCC(N)=O)NC(=O)[C@@H](NC(=O)[C@H](C)NC(=O)[C@@H]1CSSC[C@H](NC(=O)[C@@H](N)CCCCNC(=O)CC[C@H](NC(=O)CCCCCCCCCCCCCCCCC(=O)O)C(=O)O)C(=O)N[C@@H](CC(N)=O)C(=O)N[C@@H]([C@@H](C)O)C(=O)N[C@@H](C)C(=O)N[C@@H]([C@@H](C)O)C(=O)N1)[C@@H](C)O)C(=O)N[C@@H](CC(C)C)C(=O)N1CCC[C@H]1C(=O)N1CCC[C@H]1C(=O)N[C@H](C(=O)N[C@@H](CCC(=O)O)C(=O)N[C@H](C(=O)NCC(=O)N[C@@H](CO)C(=O)N[C@@H](CC(N)=O)C(=O)N[C@H](C(=O)N[C@@H](Cc1ccc(O)cc1)C(N)=O)[C@@H](C)O)C(C)C)[C@@H](C)O [Peptide 44, K(γE-C18diacid)[CNTATC]ATQRLANFLRHSS(Aib)NFGPILPPTEVGSNTY-amide] (H-K([γGlu-C18 diacid])CNTATCATQRLANFLRHSS[Aib]NFGPILPPTEVGSNTY-NH2; disulfide 2-7; N-terminus assumed) |
| >144 h |  | CC[C@H](C)[C@H](NC(=O)[C@@H]1CCCN1C(=O)CNC(=O)[C@](C)(Cc1ccccc1)NC(=O)[C@H](CC(N)=O)NC(=O)[C@H](CC(N)=O)NC(=O)[C@H](CO)NC(=O)[C@H](CO)NC(=O)[C@H](Cc1c[nH]cn1)NC(=O)[C@@H](NC(=O)[C@H](CC(C)C)NC(=O)[C@H](Cc1ccccc1)NC(=O)[C@H](CC(N)=O)NC(=O)[C@H](C)NC(=O)[C@H](CC(C)C)NC(=O)[C@H](CCCNC(=N)N)NC(=O)[C@H](CCC(N)=O)NC(=O)[C@@H](NC(=O)[C@H](C)NC(=O)[C@@H]1CSSC[C@H](NC(=O)[C@@H](N)CCCCNC(=O)CC[C@H](NC(=O)CC[C@H](NC(=O)CCCCCCCCCCCCCCCCC(=O)O)C(=O)O)C(=O)O)C(=O)N[C@@H](CC(N)=O)C(=O)N[C@@H]([C@@H](C)O)C(=O)N[C@@H](C)C(=O)N[C@@H]([C@@H](C)O)C(=O)N1)[C@@H](C)O)C(C)C)C(=O)N[C@@H](CC(C)C)C(=O)N1CCC[C@H]1C(=O)N1CCC[C@H]1C(=O)N[C@H](C(=O)N[C@@H](CCCNC(=N)N)C(=O)N[C@H](C(=O)NCC(=O)N[C@@H](CO)C(=O)N[C@@H](CC(N)=O)C(=O)N[C@H](C(=O)N[C@@H](Cc1ccc(O)cc1)C(N)=O)[C@@H](C)O)C(C)C)[C@@H](C)O [Peptide 24, K(γE-γE-C18diacid)[CNTATC]ATQRLANFLVHSSNN(αMePhe)GPILPPTRVGSNTY-amide] (H-K([γGlu-γGlu-C18 diacid])CNTATCATQRLANFLVHSSNN[αMeF]GPILPPTRVGSNTY-NH2; disulfide 2-7; N-terminus assumed) |
